Measurements as given in patent US11413301B2, “Composition comprising sea cucumber extract as effective ingredient for preventing and treating Bruch's membrane dysfunction-related disease” (priority 2016, dated 2022).

Key:
[1] = system: MMP enzyme secreted from a human Bruch's membrane; experiment: MMP secretion from Bruch's membrane incubated with Frondoside A (zymography); conditions: Frondoside A 167 μg/mL, 30 hours
Protocol: Zymography was performed using the solution incubated for 30 hours in the measurement of hydraulic conductivity in Example 10. Specifically, a Bruch's membrane was incubated with a Tris buffer solution as a control or a Frondoside A solution (167 μg/mL) for 30 hours, 50 μL of the resulting solution was mixed with 50 μL of the SDS sample buffer, and then 30 μL of the resulting mixture was loaded on a gel to measure an MMP enzyme secreted from a human Bruch's membrane.

[2] = system: lipids of Bruch's membrane; experiment: Lipid removal from Bruch's membrane by Frondoside A (lipid extracted from membrane, TLC); parameters: species or system human; conditions: Frondoside A 167 μg/mL, membrane after hydraulic conductivity measurement
Protocol: To confirm the lipid removal effect of Frondoside A, after the measurement of hydraulic conductivity in Example 10, the Bruch's membrane was cut into a piece having a diameter of 6 mm, and then a lipid was extracted using a CM solution (chloroform:methanol=2:1), followed by evaporating the solvent. After 50 μL of a CM solution was added thereto again, 40 μL of the resulting solution was dropped on a silica gel TLC plate, and the type and amount of the lipid were analyzed.

human Bruch's membrane = experiment: Hydraulic conductivity of isolated Bruch's membrane (open-type Ussing chamber, fluid transport under hydrostatic pressure)
Protocol: First, to confirm the waste transport ability, the hydraulic conductivity of the Bruch's membrane isolated from a donated eye was measured. The isolated Bruch's membrane was mounted in an open-type Ussing chamber to measure a quantitative change in fluid under hydrostatic pressure and calculate a change in hydraulic conductivity (FIGS. 5B and 5C). […] The data of FIG. 5D is expressed using a semi-log plot with the logarithmic scale on the y-axis to convert exponential decay to a linear plot. To maintain the function of photoreceptor cells, the Bruch's membrane requires a minimal hydraulic conductivity function, which represents a failure line. […] All of the hydraulic conductivities measured for the peripheral regions of the 11 macular degeneration patients may be observed to be below the mean regression line (refer to the black circle and the red line in FIG. 5E), showing that, in the peripheral region, rather than the macular region, the decrease in the material transport function progresses to a serious condition. […]
In addition, to investigate the improvement of the transport function of the Bruch's membrane according to the dose of the sea cucumber extract, Bruch's membranes isolated from the eyes of four donors ranging from 69 to 84 years of age were measured, a dose response curve for the improvement of hydraulic conductivity was expressed. […]

In the case of `COC1C(O)C(CO)OC(OC2C(O)COC(OC3C(C)OC(OC4C(O[C@H]5CC[C@]6(C)C7CCC89C(=O)O[C@@](C)(CCCC(C)C)[C@H]8[C@@H](OC(C)=O)C[C@@]9(C)C7=CC[C@H]6C5(C)C)OCC(OS(=O)(=O)[O-])C4O)C(OC4OCC(O)C(O)C4O)C3O)C2O)C1O.[Na+]` (stereo partly shown) [Frondoside A], the “secretion of Pro-MMP9 bound to the membrane” value [1] is reported as “an enormous amount of Pro-MMP9 bound to the membrane was secreted”, the “removal of Ch from the Bruch's membrane” value [2] is reported as “did not have an effect” and the “removal of ChE from the Bruch's membrane” value [2] is reported as “did not have an effect”. For the same compound, the “removal of TG from the Bruch's membrane” value [2] was “did not have an effect”, the “removal of phosphatidylcholine from the Bruch's membrane” value [2] was “had an effect of removing phosphatidylcholine” and the “effect on the improvement of hydraulic conductivity relative to the control” value (human Bruch's membrane; Frondoside A 167 μg/mL, control Tris buffer) was at least 1.6 fold. For the same compound, the “hydraulic conductivity Fold-change Mean ± SD (n)” value (human Bruch's membrane; Frondoside A 167 μg/ml) was 1.65 ± 0.2 (3) Fold-change.
